“And” between values parts separate entries of the source, which are not always exact repeats. Equal entries are not always repeated. *1 amine or outer side, *2 acyl side, *3 side chain or, on linkers, in order; H or OH if unused. Where no end group is shown, it is not given here. [ ]: non-standard residue; d: D form. The star is where a group is joined. 125I‑Tyr = O=C([C@H](Cc1ccc(O[*:3])c([125I])c1)N[*:1])[*:2]; Octanoyl = CCCCCCCC(=O)*; 125I = [125I]*

In general, Kd refers to the equilibrium constant for the complex coming apart. A lower Kd goes with a tighter complex.

Test [1] deals with CAC. The test can be described thus: Expansion (S phase) of CAC recovered from treated patients, cultured with IL-3. In kind it is in vivo, human. Particulars: cells recovered from treated diabetic patients; FIG. 3C. The method, then: To confirm their vascular features, the cells recovered from patients and controls were cultured with IL-3; which is able to induce expansion and arterial morphogenesis of CD45^+ cells derived from both peripheral blood and BM (Ref. 28).
Flow Cytometry—To analyze CAC cell-cycle progression, cells recovered from diabetic, healthy subjects, NOD/SCID, ob/ob and wt mice, were cultured in EBM-2 supplemented with IL-3 (10 ng/ml), FACS analysis was performed as previously described (Ref. 20). Cell surface molecules were evaluated by flow cytometry as previously described (Ref. 24). Frequency of marker-positive cells is expressed as mean±standard deviation (SD).

The test system of test [2] is human umbilical vein endothelial cells (HUVECs). As to conditions: Ref. 5; cited from earlier work.
Test [3] has as its system CAC. Briefly: CAC mobilization assay in healthy subjects and diabetic patients. As to conditions: diabetic patients compared to normal subjects, treated for 6 hours; FIG. 3B. Format: in vivo, human. The method, then:
This observation led to investigate the effect of UAG treatment on BM CAC mobilization. To this end, normal subject and diabetic patients were treated with UAG or saline for 6 hours. After treatment, CAC were recovered from 4 control subjects and 4 diabetic patients, analyzed by FACS analysis and counted. […] Black lines refer to preimmune IgG used as negative control and grey lines refer to surface marker expression. Similar results were obtained when CAC from untreated diabetic patients or untreated or treated healthy subjects were analyzed (data not shown).
All the subjects underwent the following testing session: • UAG (3.0 μg/kg/h iv. as infusion for 12 h from 0 to 12 hours); • isotonic saline (infusion from 0 to 12 hours).
Mobilization assay—CAC recovered from healthy subjects and diabetic patients, treated with UAG or saline for 6 h and 12 h, were evaluated. Total number of MNC was counted by 3 independent investigators. The percentage of CAC was calculated by comparing CAC obtained from diabetic patients and healthy donors, treated for 6 h and 12 h with UAG, AG or saline, to CAC recovered at time 0.

Test [4] deals with human arteries. As to conditions: Ref. 35; cited from earlier work.
Test [5] has as its system human microvascular endothelial cells (HMVECs). Particulars: exogenous AG, Ref. 4; cited from earlier work.
Test [6] has as its system cardiomyocytes. As to conditions: Ref. 8; cited from earlier work.
For test [7], the system named is CAC. The test can be described thus: CAC cell-cycle progression (percentage of cells in S phase, FACS). In kind it is cell-based, human. Particulars: cultured CAC; effect still evident after 7 days of culture; FIG. 1A. The method, then:
First, cell-cycle progression in response to UAG and AG was evaluated. […] To investigate whether this effect relies on inhibition of baseline ROS production, DCF-DA assay was performed. […] H2O2 was used as positive control. AGE-mediated damage signals mainly rely on ROS production (Ref. 29). […] Isolation and Culture of CAC from Peripheral Blood Mononuclear Cells—Peripheral-blood mononuclear cells (PB-MNC) isolated by Fycoll Histopaque 1077 (Sigma) were resuspended in 20% FBS 199 Medium and plated on fibronectin-coated dishes (Biocoat, Becton Dickinson Labware) as described by Hill et al. (Ref. 19). Human UAG studies were performed on CAC recovered from normal donors and diabetic patients. The purity of sorted cells was assessed by FACS analysis (Ref. 20). For experiments, the isolated CAC were cultured under 5% CO2 at 37° C. for 4 days on 20 μg/ml fibronectin-coated dishes in EGM-2 medium containing 10% FBS, hydrocortisone, human Fibroblast Growth Factor, Vascular Endothelial Growth Factor, Insulin Growth Factor 1, ascorbic acid, human Epidermal Growth Factor, gentamicin and amphotericin-B (Cambrex, Walkersville, Md., USA) alone or in combination with 1 μM UAG and 1.2 mg/ml AGE. […] Cell surface molecules were evaluated by flow cytometry as previously described (Ref. 24). Frequency of marker-positive cells is expressed as mean±standard deviation (SD).

Test [8] has as its system CAC. Briefly: Detection of ROS in CAC (DCF-DA assay, FACS). As to conditions: for level of ROS production in AGE-cultured cells: AGE-cultured CAC, FIG. 1C, 1F; for baseline level of ROS production: CAC, compared to untreated cells, FIG. 1B, 1E. Format: cell-based, human. The protocol: First, cell-cycle progression in response to UAG and AG was evaluated. […] To investigate whether this effect relies on inhibition of baseline ROS production, DCF-DA assay was performed. […] H2O2 was used as positive control. AGE-mediated damage signals mainly rely on ROS production (Ref. 29). […] Detection of ROS—DCF-DA (0.5 μM final concentration) was added to CAC in the indicated culture conditions. At the indicated times, the cells were subjected to FACS analysis and processed as previously described (Ref. 22). H2O2 was used as positive control.

In test [9] the test system is CAC membranes. The test can be described thus: Competition binding with [125I-Tyr4]-UAG on CAC membranes. More on the design: species or system human. An excerpt:
The specific binding of [^125I-Tyr^4]-UAG (calculated as difference between binding in the absence, control, and in the presence of UAG) represented about 75% of the control value (P<0.001) and was detected either on fresh (0.25 and 0.26 fmol) or frozen-thawed (0.20 and 0.33 fmol) CAC membranes from two different cell preparations.

Test [10] has as its target specific binding sites for UAG on CAC membranes. The test can be described thus: saturation binding on CAC membranes.
Test [11] has the same target. The test can be described thus: radioligand binding, frozen-thawed CAC membranes, two cell preparations.
Test [12] shares this target. Briefly: radioligand binding to CAC membranes; difference between binding without and with 100 nM unlabelled UAG.
For test [13] the target is unchanged. The test can be described thus: saturation binding on CAC membranes, Scatchard analysis.
Test [14] has the same target. The test can be described thus: radioligand binding, fresh CAC membranes, two cell preparations.

Turning to “AG: 28 amino acid peptide with an n-octanoyl modification on the Ser3 residue; endogenous ligand of GHSR (GSS(Octanoyl)FLSPEHQRVQQRKESKKPPAKLQPR) [reference compound]”, the “cell expansion (cells in S phase) with IL-3” value in [1] was “not from AG-treated diabetic patients, underwent cell expansion”. Further, the “basal and TNF-alpha-induced chemotactic cytokine production and mononuclear cell adhesion” value in test [2] was “inhibit basal and TNF-α-induced chemotactic cytokine production and mononuclear cell adhesion”. For the same molecule, the “number of recovered cells (CAC)” value in [3] is on record as “No statistical differences were detected”. Further, in test [4], the vasodilator action entry is given as “have vasodilator actions in human arteries”. Besides, the “cell proliferation, migration, in vitro angiogenesis and ERK2 phosphorylation” value in test [5] was “significantly increased cell proliferation, migration, in vitro angiogenesis and ERK2 phosphorylation”. The “inhibition of experimentally-induced cell death” value in test [6] was “inhibit experimentally-induced cell death”. Also, the “percentage of cells in S phase” value in test [7] is reported as “not AG, was able to induce a significant increase”. For the same molecule, in [8], the “level of ROS production in AGE-cultured cells” value is given as “no effects could be detected” and the “baseline level of ROS production” value is listed as “A protective effect failed to be detected”. Besides, in [8] (CAC isolated from type 2 diabetic patients, treated in vitro, FIG. 1D), the “intracellular ROS production in diabetic-recovered cells” value is on record as “not AG, reduced intracellular ROS production”.
On to “Ser-Pro-Glu-His-Gln-Arg-Val-Gln (SPEHQRVQ; not fully specified (C-terminus); printed as Ser-Pro-Glu-His-Gln-Arg-Val-Gln; listed as Homo sapiens) [UAG (6-13)]”, for which, in test [8], the “level of ROS production in AGE-cultured cells” value is reported as “the level of ROS production in AGE-cultured cells was reduced” and the “baseline level of ROS production” value is listed as “reduces the baseline level of ROS production”. Moreover, the “inhibition of binding of [125I-Tyr4]-UAG to CAC membranes” value in test [9] (100 nM competitor, 0.25 nM radioligand, FIG. 5A) is recorded as “inhibited”.
“[^125I-Tyr^4]-UAG: radioligand used for binding to CAC membranes (GSS[125I‑Tyr]LSPEHQRVQQRKESKKPPAKLQPR)”: the “specific binding of [125I-Tyr4]-UAG” value was “about 75 % of the control value” in test [9] (difference between binding in the absence and in the presence of 100 nM UAG, P<0.001); 0.25 fmol and 0.26 fmol in test [9] (fresh CAC membranes, two different cell preparations); 0.20 fmol and 0.33 fmol in test [9] (frozen-thawed CAC membranes, two different cell preparations).
Molecule GSSY(125I)LSPEHQRVQQRKESKKPPAKLQPR (ends and bridges not checked) [[125I-Tyr4]-UAG] came in with a concentration at maximum specific binding in test [10] of 2 nM. Further, the specific binding in [11] was 0.2 fmol and 0.33 fmol. In test [12], the specific binding (% of control value) was 75%. Also, in test [13], the Bmax (fmol/mg membrane protein) was 10.7 and the Kd came out at 0.48 nM. For the same molecule, the specific binding in test [14] is 0.25 fmol and 0.26 fmol.

The values above are taken from patent publication US20110160121A1, “UNACYLATED GHRELIN AND ANALOGS AS THERAPEUTIC AGENTS FOR VASCULAR REMODELING IN DIABETIC PATIENTS AND TREATMENT OF CARDIOVASCULAR DISEASE” (ALIZE PHARMA SAS, priority 2008, published 2011).
